# Source: US8952024B2, “Herbicidal pyrimidone derivatives” (E I du Pont de Nemours and Company, priority 2009, dated 2015)
# Tests used:
# Assay type in all cases: in vivo
# [1] = test system: giant foxtail (Setaria faberii); test: Test A pre-/postemergence plant response
# Method in brief: (§1)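 Injury was scored visually after roughly ten days against untreated controls, 0 = no effect, 100 = complete control. Test chemicals in a surfactant-containing non-phytotoxic solvent were sprayed either onto soil preemergence or onto one- to two-leaf, 2–10 cm plants postemergence.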
# [2] = test system: large crabgrass (Digitaria sanguinalis); test: Test A pre-/postemergence plant response
# Method in brief: as §1
# [3] = test system: wheat (Triticum aestivum); test: Test A pre-/postemergence plant response
# Method in brief: as §1
# corn (Zea mays) = test: Test A pre-/postemergence plant response
# Method in brief: as §1
# [4] = test system: barnyardgrass (Echinochloa crus-galli); test: Test A pre-/postemergence plant response
# Method in brief: as §1
# [5] = test system: velvetleaf (Abutilon theophrasti); test: Test A pre-/postemergence plant response
# Method in brief: as §1
# [6] = test system: morningglory (Ipomoea spp.); test: Test A pre-/postemergence plant response
# Method in brief: as §1
# [7] = test system: pigweed (Amaranthus retroflexus); test: Test A pre-/postemergence plant response
# Method in brief: as §1
# [8] = test system: ducksalad (Heteranthera limosa); test: Test B flooded paddy test; settings: for Plant response rating, Flood, Ducksalad: 250 g ai/ha, flooded paddy test, visual rating on 0 to 100 scale (0 no effect, 100 complete control) after 13 to 15 days
# Method in brief: (§2)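 Rice, umbrella sedge, ducksalad and barnyardgrass were grown to the 2-leaf stage, flooded to 3 cm, and compound was applied directly to the paddy water, with that depth kept throughout. After 13 to 15 days in the greenhouse, plants were visually rated against controls on a 0 (no effect) to 100 (complete control) scale.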
# [9] = test system: umbrella sedge (Cyperus difformis); test: Test B flooded paddy test; settings: for Plant response rating, Flood, Sedge, Umbrella: 250 g ai/ha, flooded paddy test, visual rating on 0 to 100 scale (0 no effect, 100 complete control) after 13 to 15 days; for Plant response rating, Sedge, Umbrella: Flood (flooded paddy test), 62 g ai/ha, scale of 0 to 100 where 0 is no effect and 100 is complete control, 13 to 15 days
# Method in brief: as §2
# rice (Oryza sativa) = test: Test B flooded paddy test; settings: for Plant response rating, Flood, Rice: 250 g ai/ha, flooded paddy test, visual rating on 0 to 100 scale (0 no effect, 100 complete control) after 13 to 15 days; for Plant response rating, Rice: Flood (flooded paddy test), 62 g ai/ha, scale of 0 to 100 where 0 is no effect and 100 is complete control, 13 to 15 days
# Method in brief: as §2
# [10] = test system: barnyardgrass (Echinochloa crus-galli); test: Test B flooded paddy test; settings: for Plant response rating, Flood, Barnyardgrass: 250 g ai/ha, flooded paddy test, visual rating on 0 to 100 scale (0 no effect, 100 complete control) after 13 to 15 days; for Plant response rating, Barnyardgrass: Flood (flooded paddy test), 62 g ai/ha, scale of 0 to 100 where 0 is no effect and 100 is complete control, 13 to 15 days
# Method in brief: as §2
# [11] = Postemergence, 125 g ai/ha, 0 to 100 scale where 0 is no effect and 100 is complete control
# [12] = Postemergence, 500 g ai/ha, 0 to 100 scale, 0 = no effect, 100 = complete control, approx. ten days
# [13] = Preemergence, 125 g ai/ha, 0 to 100 scale, 0 = no effect, 100 = complete control
# [14] = Preemergence, 500 g ai/ha, visual injury, 0 to 100 scale (0 no effect, 100 complete control), approx. ten days
Compound,"Plant response rating, Foxtail, Giant [1, 11]","Plant response rating, Foxtail, Giant [1, 12]","Plant response rating, Foxtail, Giant [1, 13]","Plant response rating, Foxtail, Giant [1, 14]","Plant response rating, Crabgrass, Large [2, 11]","Plant response rating, Crabgrass, Large [2, 12]","Plant response rating, Crabgrass, Large [2, 13]","Plant response rating, Crabgrass, Large [2, 14]","Plant response rating, Wheat [3, 11]","Plant response rating, Wheat [3, 12]","Plant response rating, Wheat [3, 13]","Plant response rating, Wheat [3, 14]","Plant response rating, Corn (corn (Zea mays); [11])","Plant response rating, Corn (corn (Zea mays); [12])","Plant response rating, Corn (corn (Zea mays); [13])","Plant response rating, Corn (corn (Zea mays); [14])","Plant response rating, Barnyardgrass [4, 11]","Plant response rating, Barnyardgrass [4, 12]","Plant response rating, Barnyardgrass [4, 13]","Plant response rating, Barnyardgrass [4, 14]",also measured
COCCn1c(-c2cccc(C)c2)ncc(C(=O)C2=C(O)CCCC2=O)c1=O [Compound 117],70,80,20,70,80,100,60,100,0,30,0,20,20,50,0,20,80,90,50,90,"Plant response rating, Velvetleaf [5, 11]: 100; Plant response rating, Velvetleaf [5, 12]: 100; Plant response rating, Velvetleaf [5, 13]: 70; Plant response rating, Velvetleaf [5, 14]: 90; Plant response rating, Morningglory [6, 11]: 100; Plant response rating, Morningglory [6, 12]: 100; Plant response rating, Morningglory [6, 13]: 40; Plant response rating, Morningglory [6, 14]: 90; Plant response rating, Pigweed [7, 11]: 100; Plant response rating, Pigweed [7, 12]: 100; Plant response rating, Pigweed [7, 13]: 90; Plant response rating, Pigweed [7, 14]: 100; Plant response rating, Flood, Ducksalad [8]: 100; Plant response rating, Flood, Sedge, Umbrella [9]: 95; Plant response rating, Sedge, Umbrella [9]: 95; Plant response rating, Flood, Rice (rice (Oryza sativa)): 15; Plant response rating, Rice (rice (Oryza sativa)): 0; Plant response rating, Flood, Barnyardgrass [10]: 75; Plant response rating, Barnyardgrass [10]: 65"
"COCCCn1c(-c2cccc(C)c2)ncc(C(=O)C2=C(O)CCCC2=O)c1=O [Compound 118, 5-[(2-hydroxy-6-oxo-1-cyclohexane-1-yl)carbonyl]-3-(3-methoxypropyl)-2-(3-methylphenyl)-4(3H)-pyrimidinone]",80,90,10,50,90,90,60,90,0,10,0,0,0,30,0,0,90,90,30,90,"Plant response rating, Velvetleaf [5, 11]: 100; Plant response rating, Velvetleaf [5, 12]: 100; Plant response rating, Velvetleaf [5, 13]: 70; Plant response rating, Velvetleaf [5, 14]: 80; Plant response rating, Morningglory [6, 11]: 100; Plant response rating, Morningglory [6, 12]: 100; Plant response rating, Morningglory [6, 13]: 10; Plant response rating, Morningglory [6, 14]: 70; Plant response rating, Pigweed [7, 11]: 100; Plant response rating, Pigweed [7, 12]: 100; Plant response rating, Pigweed [7, 13]: 90; Plant response rating, Pigweed [7, 14]: 100; Plant response rating, Flood, Ducksalad [8]: 100; Plant response rating, Ducksalad ([8]; Flood (flooded paddy test), 62 g ai/ha, scale of 0 to 100 where 0 is no effect and 100 is complete control, 13 to 15 days): 100; Plant response rating, Flood, Sedge, Umbrella [9]: 85; Plant response rating, Sedge, Umbrella [9]: 70; Plant response rating, Flood, Rice (rice (Oryza sativa)): 15; Plant response rating, Rice (rice (Oryza sativa)): 0; Plant response rating, Flood, Barnyardgrass [10]: 70; Plant response rating, Barnyardgrass [10]: 50"
